Reference: US20020022718A1, “Genes identified as required for proliferation of E. coli” (priority 1999, published 2002)
In brackets after ≈: the same amount, converted by molar mass. Read-outs that look alike come from different tables or passages of the source.

B1: EcXA172: antisense clone insert to E. coli b2345 (nucleic acid, listed as Escherichia coli)
antisense: AAAACTCACCTTTTTTGTTGTTATCCCTCAATTACCACAAGTAAAAGGAGATAAACCGACAATGACCTAGACGTAATTATGTAAAAATACTGATGTTCGTCACTGACTATTTCCGATATTCAGCTGTTGAAAAATCAAAAAACTGGAAAAATAATTTTAAATATCAT
B2: EcXA161: antisense clone insert to E. coli sbcD (nucleic acid, listed as Escherichia coli)
antisense: GAAACTCAGTGGAATGGGGGAGCCGCAATAGCGAACATGTTCCATGCCGCCAATAATCTGTGCGCGGTGAATATGCCCGAGCGCGATGTAGTCGGCTGGTGGAAAGTTTTGTGCCGGAAACGCGTCCAGCGTGCCAATATAAATGTCACGCACGGCGTCACTTTTACTGGCCCCCACGGTCGTTAAATGTCCCGTGGCGATGATGGGCAGAGGCTGATCGCCGCGCAGTTTGCAGGCATCGGCATAGTGT
B3: EcXA134: antisense clone insert to E. coli sspA (nucleic acid, listed as Escherichia coli)
antisense: TGTTCGATCTCGAAACTTACACCTTTCTCAGCCAGCACAATGCGGACCTGATGGCTATAGATGTCAGTAGGACCGGAAAACAGCGTCATTACCCGAACGTTTGTTGGC

How the values were obtained:
[1] = tested on: Bacterial cells expressing antisense nucleic acid complementary to rplL and rplJ (50S ribosomal subunit proteins); experiment: microbe, parasite or virus in culture; assay type: cell-based, E. coli; conditions: for IC50: Escherichia coli; for Fold Increase in Sensitivity: IC50 −IPTG versus +IPTG (400 μM); for Sensitivity Increased?: significant decrease in IC50 in the presence of inducer IPTG
Experimental: Two-fold dilution series of antibiotics with a known mechanism of action are generated in the culture media selected for further assay development that has been supplemented with the antibiotic used to maintain the construct. A panel of test antibiotics known to act on different pathways is tested side by side with three to four wells being used to evaluate the effect of a test antibiotic on cell growth at each concentration. Equal volumes of test antibiotic and cells are added to the wells of a 384 well microtiter plate and mixed. Cells are prepared as described above using the media selected for assay development supplemented with the antibiotic required to maintain the antisense construct and are diluted 1:100 in identical media immediately prior to addition to the microtiter plate wells. For a control, cells are also added to several wells that contain the solvent used to dissolve the antibiotics but no antibiotic. Cell growth is monitored continuously by incubation at 37° C. in a microtiter plate reader monitoring the OD600 of the wells over an 18-hour period. […] A plot of percent inhibition against log[antibiotic concentration] allows extrapolation of an IC50 value for each antibiotic.
The culture media selected for use in the assay is supplemented with inducer at concentrations shown to inhibit cell growth by 50% and 80% as described above and the antibiotic used to maintain the construct. Two fold dilution series of the panel of test antibiotics used above are generated in each of these media. Several antibiotics are tested side by side with three to four wells being used to evaluate the effects of an antibiotic on cell growth at each concentration, in each media. Equal volumes of test antibiotic and cells are added to the wells of a 384 well microtiter plate and mixed. Cells are prepared as described above using the media selected for use in the assay supplemented with the antibiotic required to maintain the antisense construct. […] Immediately prior to addition to the microtiter plate wells, the cultures are adjusted to an appropriate OD600 (typically 0.002) by dilution into warm (37° C.) sterile media supplemented with identical concentrations of the inducer and antibiotic used to maintain the antisense construct. For a control, cells are also added to several wells that contain solvent used to dissolve test antibiotics but which contain no antibiotic. Cell growth is monitored continuously by incubation at 37° C. in a microtiter plate reader monitoring the OD600 of the wells over an 18-hour period. […] A plot of percent inhibition against log[antibiotic concentration] allows extrapolation of an IC50 value for each antibiotic.
Antibiotics of various chemical classes and modes of action were purchased from Sigma Chemicals (St. Louis, Mo.). Stock solutions were prepared by dissolving each antibiotic in an appropriate aqueous solution based on information provided by the manufacturer. The final working solution of each antibiotic contained no more than 0.2% (w/v) of any organic solvent. To determine their potency against a bacterial strain engineered for expression of an antisense complementary to a proliferation-required gene encoding 50S ribosomal protein, each antibiotic was serially diluted two or three fold in growth medium supplemented with the appropriate antibiotic for maintenance of the anti-sense construct. At least ten dilutions were prepared for each antibiotic. 25 μL aliquots of each dilution were transferred to discrete wells of a 384-well microplate (the assay plate) using a multi-channel pipette. Quadruplicate wells were used for each dilution of an antibiotic under each treatment condition (plus and minus inducer). Each assay plate contained twenty wells for cell growth controls (growth media replacing antibiotic), ten wells for each treatment (plus and minus inducer, in this example IPTG).

[2] = tested on: E. coli transformed with IPTG-inducible antisense clones (AS-rplW, AS-rplLrplJ, AS-elaD, AS-visC, AS-yohH, AS-atpB/E); experiment: Cell-based assay: antibiotic sensitivity of E. coli antisense clones pretreated with IPTG (Example 9)
Source text: The effectiveness of the above cell-based assay was validated using constructs expressing antisense RNA to the proliferation required E. coli genes rplL, rplJ, and rplW encoding ribosomal proteins L7/L12, L10 and L23 respectively. These proteins are part of the protein synthesis apparatus of the cell and as such are required for proliferation. These constructs were used to test the effect of antisense expression on cell sensitivity to antibiotics known to bind to the ribosome and thereby inhibit protein synthesis. Constructs expressing antisense RNA to several other genes (elaD, visC, yohH, and atpE/B), the products of which are not involved in protein synthesis were used for comparison.
First, pLEX5BA (Krause et al., J. Mol. Biol. 274: 365 (1997), the disclosure of which is incorporated herein by reference in its entirety) expression vectors containing antisense constructs to either rplW or to elaD were introduced into separate E. coli cell populations. Vector introduction is a technique well known to those of ordinary skill in the art. The expression vectors of this example contain IPTG inducible promoters that drive the expression of the antisense RNA in the presence of the inducer. However, those skilled in the art will appreciate that other inducible promoters may also be used. Suitable expression vectors are also well known in the art. The E. coli antisense clones to genes encoding ribosomal proteins L7/L12, L10 and L23 were used to test the effect of antisense expression on cell sensitivity to the antibiotics known to bind to these proteins. […]
The cell populations were exposed to a range of IPTG concentrations in liquid medium to obtain the growth inhibitory dose curve for each clone (FIG. 1). First, seed cultures were grown to a particular turbidity that is measured by the optical density (OD) of the growth solution. […] The cells were grown for up to 15 hours and the extent of growth was determined by measuring the optical density of the cultures at 600 nm. […]

Enterobacter cloacae = experiment: Growth inhibition by induced E. coli antisense RNA in Enterobacter cloacae; assay type: cell-based; set-up: key: +: a positive in Table V below means that at least 10 fold more cells were required to observe a colony on the induced plate than on the non-induced plate; −: If there was no effect of antisense RNA expression in a microorganism, the clone is minus in Table V below; conditions: antisense RNA expression induced with IPTG, serial dilution plating
Experimental: (§1) To study the effects of transcriptional induction in liquid medium, growth curves were carried out by back diluting cultures 1:200 into fresh media with or without 1 mM IPTG and measuring the OD450 every 30 minutes (min). To study the effects of transcriptional induction on solid medium, 10^2, 10^3, 10^4, 10^5, 10^6, 10^7 and 10^8 fold dilutions of overnight cultures were prepared. Aliquots of from 0.5 to 3 μl of these dilutions were spotted on selective agar plates with or without 1 mM IPTG. After overnight incubation, the plates were compared to assess the sensitivity of the clones to IPTG.
(§2) Molecule No. EcXA190, encoding a portion of the b3052 gene of Escherichia coli, was either transformed directly into Enterobacter cloacae, Salmonella typhimurium and/or Klebsiella pneumoniae or subcloned into an expression vector functional in these species and the subclones transformed into these organisms. Suitable expression vectors are well known in the art. […] After growth in liquid culture, cells were plated at various serial dilutions and a score determined by calculating the log difference in growth for INDUCED vs. UNINDUCED antisense RNA expression as determined by the maximum 10 fold dilution at which a colony was observed. […]

Salmonella typhimurium = experiment: Growth inhibition by induced E. coli antisense RNA in Salmonella typhimurium; assay type: cell-based; set-up: key: +: a positive in Table V below means that at least 10 fold more cells were required to observe a colony on the induced plate than on the non-induced plate; −: If there was no effect of antisense RNA expression in a microorganism, the clone is minus in Table V below; conditions: antisense RNA expression induced with IPTG, serial dilution plating
Experimental: as §1, §2

Klebsiella pneumoniae = experiment: Growth inhibition by induced E. coli antisense RNA in Klebsiella pneumoniae; assay type: cell-based; set-up: key: +: a positive in Table V below means that at least 10 fold more cells were required to observe a colony on the induced plate than on the non-induced plate; −: If there was no effect of antisense RNA expression in a microorganism, the clone is minus in Table V below; conditions: antisense RNA expression induced with IPTG, serial dilution plating
In short: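 Overnight cultures were diluted 10^2 to 10^8-fold and spotted on selective plates with or without 1 mM IPTG to induce antisense RNA from transformed E. coli sequences. After overnight growth, induced vs uninduced was scored as the log difference in the highest dilution giving colonies. No effect scores 0 (or minus); a positive score means at least 10-fold more cells were needed.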

E. coli = experiment: Inhibition of E. coli proliferation after IPTG induction of antisense clones (growth curves, dilution spotting, score); assay type: cell-based, Escherichia coli; conditions: IPTG induction (1 mM)
Experimental: as §1
Of the numerous clones tested, some clones were identified as containing a sequence that inhibited E. coli growth after IPTG induction. […]
as §2, with “organisms.” for “organisms. Suitable expression vectors are well known in the art.”

Molecule | IC50 ([1]; read-out: IC50 (+IPTG)) | IC50 ([1]; read-out: IC50 (−IPTG)) | Fold Increase in Sensitivity [1] | Sensitivity Increased? [1] | effect of antisense expression on E. coli growth/proliferation (E. coli) | further results
CC[C@H]1OC(=O)[C@H](C)[C@@H](O[C@H]2C[C@@](C)(OC)[C@@H](O)[C@H](C)O2)[C@H](C)[C@@H](O[C@@H]2O[C@H](C)C[C@H](N(C)C)[C@H]2O)[C@](C)(O)C[C@@H](C)C(=O)[C@H](C)[C@@H](O)[C@]1(C)O [Erythromycin] | 0.187 µg/mL (≈ 0.255 µM) | 7.47 µg/mL (≈ 10.2 µM) | 40 | Yes |  | sensitivity to antibiotic ([2]; initial experiments, clones with antisense to non-protein synthesis genes elaD, atpB/E and visC): do not; sensitivity to antibiotic ([2]; initial experiments, clones with antisense to protein synthesis genes (L7/L12 & L10, L7/L12 alone, L22, L18, rRNA, Elongation Factor G)): increased sensitivity
CCn1cc(C(=O)O)c(=O)c2ccc(C)nc21 [Nalidixic acid] | 6.03 µg/mL (≈ 25.9 µM) | 6.97 µg/mL (≈ 30 µM) | 1 | No |  | sensitivity to antibiotic ([2]; cells/clone expressing antisense to rplL and rplJ (L7/L12, L10), IPTG induced): does not show increased sensitivity
B1 |  |  |  |  |  | Sensitivity of E. cloacae to antisense nucleic acid (growth inhibition, induced vs. uninduced) (Enterobacter cloacae): −; Sensitivity of S. typhimurium to antisense nucleic acid (growth inhibition, induced vs. uninduced) (Salmonella typhimurium): −; Sensitivity of K. pneumoniae to antisense nucleic acid (growth inhibition, induced vs. uninduced) (Klebsiella pneumoniae): −
B2 |  |  |  |  | reduction in cell growth | 
B3 |  |  |  |  | reduction in cell growth | 
